Series [1] concerns Mus musculus. As to the kind of experiment: Analgesic activity evaluated by measuring % analgesic effect, after oral administration of 5 mg/kg in acetic acid writhing test. Type of series: functional.
Series [2] has as its system Mus musculus. Description: Analgesic activity evaluated by measuring % analgesic effect, after oral administration of 15 mg/kg in acetic acid writhing test. In kind it is functional. For orientation: In writhing tests, fewer writhes than in controls are read as antinociception.
Series [3] deals with Mus musculus. As to the kind of experiment: Analgesic activity evaluated by measuring % analgesic effect, after oral administration of 30 mg/kg in acetic acid writhing test. In kind it is functional.
Series [4] relates to Mus musculus. As to the kind of experiment: Analgesic activity evaluated by measuring % analgesic effect, after oral administration of 0.3 mg/kg in acetic acid writhing test. In kind it is functional.
The test system of series [5] is Mus musculus. Description: Acute toxicity was evaluated as number of mice (tested=7) died after 72nd hour when 200 mg/kg is administered intraperitoneally. In kind it is organism-based. The arrangement: dose 200 mg/kg, route intraperitoneal. The conditions noted are these: in vivo, ip.
Series [6] deals with Mus musculus. Description: Acute toxicity was evaluated as number of mice (tested=7) died after 72nd hour when 250 mg/kg is administered intraperitoneally. In kind it is organism-based. The conditions noted are these: in vivo, ip. Further details: dose 250 mg/kg, route intraperitoneal.
Series [7] has as its system Mus musculus. Description: Acute toxicity was evaluated as number of mice (tested=7) died after 72nd hour when 260 mg/kg is administered intraperitoneally. In kind it is organism-based. Further details: dose 260 mg/kg, route intraperitoneal. To be noted: in vivo, ip.
In series [8] the test system is Mus musculus. Description: Acute toxicity was evaluated as number of mice (tested=7) died after 72nd hour when 270 mg/kg is administered intraperitoneally. Type of series: organism-based. Further details: dose 270 mg/kg, route intraperitoneal. The conditions noted are these: in vivo, ip.
The subject of series [9] is Mus musculus. As to the kind of experiment: Acute toxicity was evaluated as number of mice (tested=7) died after 72nd hour when 280 mg/kg is administered intraperitoneally. Type of series: organism-based. The arrangement: dose 280 mg/kg, route intraperitoneal. The conditions noted are these: in vivo, ip.
Series [10] is described as follows: Toxic activity is expressed as LD50 values. Type of series: toxicity, organism-based. The conditions noted are these: mouse, in vivo.
The nature of series [11]: Therapeutic index was expressed as LD50/ED50 carragreenin model. To be noted: mouse; read-out: TI.
The species entered for series [12] is Mus musculus. Description: Analgesic activity in acetic acid writhing test, activity is expressed as ED50 values. In kind it is functional.
Series [13] is filed under the species Rattus norvegicus. As to the kind of experiment: Antiinflammatory activity in carrageenan model, activity is expressed as ED50 values. In kind it is functional.
Series [14] concerns Rattus norvegicus. As to the kind of experiment: Antiinflammatory activity evaluated by measuring % reduction of edema, 3h after oral administration of 25 mg/kg in carrageenan model. In kind it is functional.
Series [15] concerns Rattus norvegicus. As to the kind of experiment: Antiinflammatory activity evaluated by measuring % reduction of edema, 3h after oral administration of 100 mg/kg in carrageenan model. In kind it is functional.
Series [16] has as its system Rattus norvegicus. Description: Antiinflammatory activity evaluated by measuring % reduction of edema, 3h after oral administration of 10 mg/kg in carrageenan model. Type of series: functional.
Series [17] deals with Rattus norvegicus. Description: Percent reduction of edema in rat on 23rd day after oral administration of 30 mg/kg in antiarthritis assay. Type of series: functional.
The species entered for series [18] is Rattus norvegicus. Description: Ulcer index of the compound. In kind it is functional.
The test system of series [19] is Mus musculus. As to the kind of experiment: Percent reduction of edema in mice 3h after oral administration of 17 mg/kg in carrageenan model. In kind it is functional.
Series [20] relates to Mus musculus. Description: Acute toxicity was evaluated as number of mice died (tested = 7) after 72nd hour when 15 mg/kg is administered intraperitoneally. In kind it is organism-based. Further details: dose 15 mg/kg, route intraperitoneal. To be noted: in vivo, ip.
In series [21] the test system is Mus musculus. As to the kind of experiment: Acute toxicity was evaluated as number of mice died (tested = 7) after 72nd hour when 75 mg/kg is administered intraperitoneally. Type of series: organism-based. Further details: dose 75 mg/kg, route intraperitoneal. To be noted: in vivo, ip.
Series [22] deals with Mus musculus. As to the kind of experiment: Acute toxicity was evaluated as number of mice died (tested = 7) after 72nd hour when 8 mg/kg is administered intraperitoneally. In kind it is organism-based. Further details: dose 8 mg/kg, route intraperitoneal. To be noted: in vivo, ip.
Series [23] deals with Rattus norvegicus. As to the kind of experiment: Analgesic activity evaluated by measuring % analgesic effect, after oral administration of 1.0 mg/kg in acetic acid writhing test. In kind it is functional.
Series [24] concerns Rattus norvegicus. As to the kind of experiment: Analgesic activity evaluated by measuring % analgesic effect, after oral administration of 120 mg/kg in acetic acid writhing test. Type of series: functional.
Series [25] relates to Rattus norvegicus. Description: Analgesic activity evaluated by measuring % analgesic effect, after oral administration of 3.0 mg/kg in acetic acid writhing test. In kind it is functional.
In series [26] the test system is Rattus norvegicus. Description: Antiinflammatory activity evaluated by measuring % reduction of edema, 3h after oral administration of 5 mg/kg in carrageenan model. Type of series: functional.
Series [27] has as its system Rattus norvegicus. Description: Antiinflammatory activity evaluated by measuring % reduction of edema, 3h after oral administration of 1 mg/kg in carrageenan model. Type of series: functional.
For series [28], the system named is Rattus norvegicus. As to the kind of experiment: Percent reduction of edema in rat on 23rd day after oral administration of 3 mg/kg in antiarthritis assay. In kind it is functional.
The test system of series [29] is Rattus norvegicus. Description: Median ulcerogenic dose was determined at 30 mg/kg dose. Type of series: functional.
Series [30] deals with Rattus norvegicus. As to the kind of experiment: Ulcer index at 30 mg/kg concentration. In kind it is functional.
For series [31], the system named is Rattus norvegicus. As to the kind of experiment: Ulcer index at 50 mg/kg concentration. Type of series: functional.
Series [32] concerns Rattus norvegicus. Description: Ulcer index at 5 mg/kg concentration. Type of series: functional.
The subject of series [33] is Mus musculus. As to the kind of experiment: Percent reduction of edema in mice 3h after oral administration of 3 mg/kg in carrageenan model. In kind it is functional.
Series [34] deals with Mus musculus. Description: Acute toxicity was evaluated as number of mice died (tested = 7) after 72nd hour when 12 mg/kg is administered intraperitoneally. To be noted: in vivo, ip. In kind it is organism-based. Further details: dose 12 mg/kg, route intraperitoneal.
In series [35] the test system is Mus musculus. As to the kind of experiment: Percent reduction of edema in mice 3h after oral administration of 100 mg/kg in carrageenan model. In kind it is functional.
The test system of series [36] is Rattus norvegicus. As to the kind of experiment: Percent reduction of edema in rat on 23rd day after oral administration of 100 mg/kg in antiarthritis assay. Type of series: functional.

As a reminder, the LD50 is the dose at which mortality reaches 50%. One may read the ED50 as the midpoint of the dose-response relation. A higher ED50 goes with a need for a large dose. Take `CCn1ccc(=O)n2nc(-c3ccccc3)cc12`: the Analgesic effect in the series on Mus musculus [1] amounted to 24.5%; with Mus musculus [2], 69.3%; with Mus musculus [3] it was 84.3%; in the series on Mus musculus [4], 20%. The Acute toxicity in the series with Mus musculus [5] is listed as 0; with Mus musculus [6] it was 1; with Mus musculus [7] it was 2; in the series with Mus musculus [8] it was 3; in the series with Mus musculus [9], 5. Also, the LD50 in [10] was 271 mg/kg. Also, the selectivity ratio in [11] was 37.1. Moreover, the results for the ED50 in the series listed under Mus musculus [12] and in the series filed under Rattus norvegicus [13] were 9.86 mg/kg and 7.3 mg/kg, respectively. In addition, the Reduction came out at 69.8% in the series on Rattus norvegicus [14]; 90.1% in the series on Rattus norvegicus [15]; 54.1% in the series on Rattus norvegicus [16]; 42.7% in the series with Rattus norvegicus [17]; 54.1% in the series on Mus musculus [19]. Besides, the UI in the series listed under Rattus norvegicus [18] stood at 0.15.
Take `COc1ccc2c(c1)c(CC(=O)O)c(C)n2C(=O)c1ccc(Cl)cc1` [INDOMETHACIN]: the Acute toxicity in the series with Mus musculus [20] came to 3; in the series on Mus musculus [21], 7; in the series with Mus musculus [22], 1; with Mus musculus [34] it was 2. Also, the LD50 in series [10] turned out to be 19.9 mg/kg. Moreover, in series [11], the selectivity ratio came out at 10.9. Moreover, the figures for the Analgesic effect in the series with Rattus norvegicus [23], in the series on Rattus norvegicus [24] and in the series on Rattus norvegicus [25] were 28%, 28.4% and 57%, respectively. Besides, the ED50 in the series filed under Mus musculus [12] is 2.5 mg/kg; in the series filed under Rattus norvegicus [13], 1.83 mg/kg. The Reduction in the series on Rattus norvegicus [26] came out at 69.2%; with Rattus norvegicus [27], 36.7%; with Rattus norvegicus [28] it was 39%; in the series with Mus musculus [33], 62.4%. In the series on Rattus norvegicus [29], this compound displayed a UD50 of 12.1 mg/kg. For the same compound, the UI in the series on Rattus norvegicus [30] is 2.36; in the series on Rattus norvegicus [31] it was 3.3; in the series on Rattus norvegicus [32], 1.4.
Turning to `CCn1c(=O)ccn2nc(-c3ccccc3)cc12`, the Reduction in the series on Mus musculus [35] worked out at 32.2%; in the series on Rattus norvegicus [36], 25.7%.
